Laboratory results published in US11649227B2, “Allosteric chromenone inhibitors of phosphoinositide 3-kinase (PI3K) for the treatment of disease” (Petra Pharma Corporation, priority 2020, dated 2023).
Like-named read-outs stand apart in the source and are kept apart here.

Legend:
[1] = biological target: human full length PIK3CA H1047R mutant (p110α/p85α complex) (Homo sapiens (Human), UniProt P42336, H1047R); test: PI3K-Alpha kinase (PIK3CA) activity, H1047R mutant, Transcreener ADP2 FI assay; conditions: PI3K-α (PIK3CA) H1047R mutant, biochemical
Chain of human full length PIK3CA H1047R mutant (p110α/p85α complex) (P42336 whole entry H1047R): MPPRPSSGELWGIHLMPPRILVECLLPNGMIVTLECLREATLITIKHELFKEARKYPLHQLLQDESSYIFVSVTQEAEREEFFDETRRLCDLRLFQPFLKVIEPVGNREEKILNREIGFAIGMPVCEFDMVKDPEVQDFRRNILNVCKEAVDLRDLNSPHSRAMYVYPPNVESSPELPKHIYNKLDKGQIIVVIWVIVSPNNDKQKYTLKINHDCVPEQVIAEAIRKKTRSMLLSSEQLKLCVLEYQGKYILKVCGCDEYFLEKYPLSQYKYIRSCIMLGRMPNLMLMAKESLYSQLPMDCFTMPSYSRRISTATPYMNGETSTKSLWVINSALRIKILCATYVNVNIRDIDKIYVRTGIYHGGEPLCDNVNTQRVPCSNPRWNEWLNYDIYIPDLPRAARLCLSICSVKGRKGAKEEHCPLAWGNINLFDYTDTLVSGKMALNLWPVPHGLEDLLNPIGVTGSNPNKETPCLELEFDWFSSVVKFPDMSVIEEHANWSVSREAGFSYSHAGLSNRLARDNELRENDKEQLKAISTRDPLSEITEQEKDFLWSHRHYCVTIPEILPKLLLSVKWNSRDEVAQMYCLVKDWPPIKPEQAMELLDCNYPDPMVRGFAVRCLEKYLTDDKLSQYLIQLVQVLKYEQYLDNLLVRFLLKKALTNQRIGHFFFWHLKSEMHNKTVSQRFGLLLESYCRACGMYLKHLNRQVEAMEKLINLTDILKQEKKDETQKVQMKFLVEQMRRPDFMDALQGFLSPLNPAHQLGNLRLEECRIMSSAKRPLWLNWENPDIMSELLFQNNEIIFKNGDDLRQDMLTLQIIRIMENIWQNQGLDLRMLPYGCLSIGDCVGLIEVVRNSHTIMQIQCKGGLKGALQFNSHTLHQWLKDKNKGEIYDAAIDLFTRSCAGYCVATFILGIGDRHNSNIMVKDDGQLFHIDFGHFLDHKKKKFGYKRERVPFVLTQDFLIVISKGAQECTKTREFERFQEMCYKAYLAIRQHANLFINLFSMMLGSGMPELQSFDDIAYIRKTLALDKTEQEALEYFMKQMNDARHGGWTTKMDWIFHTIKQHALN
Chain of human full length PIK3CA H1047R mutant (p110α/p85α complex) (P27986 whole entry partner): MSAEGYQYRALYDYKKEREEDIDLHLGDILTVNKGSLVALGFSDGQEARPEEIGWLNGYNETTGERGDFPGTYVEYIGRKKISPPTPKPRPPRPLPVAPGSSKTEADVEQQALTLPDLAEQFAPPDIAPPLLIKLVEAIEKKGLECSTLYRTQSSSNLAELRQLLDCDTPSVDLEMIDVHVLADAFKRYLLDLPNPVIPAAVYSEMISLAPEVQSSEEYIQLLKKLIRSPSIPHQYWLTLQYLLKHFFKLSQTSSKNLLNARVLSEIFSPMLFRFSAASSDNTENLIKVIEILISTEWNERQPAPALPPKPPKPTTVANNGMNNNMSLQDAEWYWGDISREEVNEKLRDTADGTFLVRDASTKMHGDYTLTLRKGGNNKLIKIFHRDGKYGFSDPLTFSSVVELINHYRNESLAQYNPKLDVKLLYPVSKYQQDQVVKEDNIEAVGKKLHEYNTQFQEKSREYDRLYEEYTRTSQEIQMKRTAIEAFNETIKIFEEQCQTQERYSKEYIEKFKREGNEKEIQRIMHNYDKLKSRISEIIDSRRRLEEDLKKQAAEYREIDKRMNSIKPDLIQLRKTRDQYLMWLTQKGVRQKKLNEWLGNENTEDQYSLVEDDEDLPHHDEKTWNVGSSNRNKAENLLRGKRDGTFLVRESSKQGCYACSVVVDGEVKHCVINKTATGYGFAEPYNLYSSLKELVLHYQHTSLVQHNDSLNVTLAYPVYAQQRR
Outline: (§1)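 Recombinant full-length p110α/p85α (1-5 nM, wild-type or H1047R) preincubated with compound 1 h at 27° C, then reacted with 25 uM ATP and 50 uM PIP2diC8 or membrane PIP2:PS in pH 7.4 HEPES, 25 mM MgCl2, 5% DMSO (also pH 6.0/6.4 MOPS). Run to ~2.5 uM ADP; Transcreener ADP2 fluorescence converted via ADP calibration for IC50.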

[2] = test system: T-47D; test: Cellular Assay T-47D; type: cell-based; conditions: Homo sapiens, T47D; T-47D cells
[3] = biological target: human full length PIK3CA Wild-type (p110α/p85α complex) (Homo sapiens (Human), UniProt P42336); test: PI3K-Alpha kinase (PIK3CA) activity, wild-type, Transcreener ADP2 FI assay; conditions: PI3K-α (PIK3CA) wild-type, biochemical
Chain of human full length PIK3CA Wild-type (p110α/p85α complex) (P42336 whole entry): as the sequence (P42336 whole entry H1047R) above, with R1047H counted along it
Chain of human full length PIK3CA Wild-type (p110α/p85α complex) (P27986 whole entry partner): as the sequence (P27986 whole entry partner) above
Outline: as §1

[4] = biological target: mTOR (Homo sapiens (Human), UniProt P42345); test: Selectivity against selected lipid kinases: mTOR; type: biochemical
[5] = biological target: PI3K-G (Homo sapiens (Human), UniProt P48736); test: Selectivity against selected lipid kinases: PI3K-G; type: biochemical
[6] = biological target: Vps34 (Homo sapiens (Human), UniProt Q8NEB9); test: Selectivity against selected lipid kinases: Vps34; type: biochemical
Chain of Vps34 (Q8NEB9 whole entry, species assumed): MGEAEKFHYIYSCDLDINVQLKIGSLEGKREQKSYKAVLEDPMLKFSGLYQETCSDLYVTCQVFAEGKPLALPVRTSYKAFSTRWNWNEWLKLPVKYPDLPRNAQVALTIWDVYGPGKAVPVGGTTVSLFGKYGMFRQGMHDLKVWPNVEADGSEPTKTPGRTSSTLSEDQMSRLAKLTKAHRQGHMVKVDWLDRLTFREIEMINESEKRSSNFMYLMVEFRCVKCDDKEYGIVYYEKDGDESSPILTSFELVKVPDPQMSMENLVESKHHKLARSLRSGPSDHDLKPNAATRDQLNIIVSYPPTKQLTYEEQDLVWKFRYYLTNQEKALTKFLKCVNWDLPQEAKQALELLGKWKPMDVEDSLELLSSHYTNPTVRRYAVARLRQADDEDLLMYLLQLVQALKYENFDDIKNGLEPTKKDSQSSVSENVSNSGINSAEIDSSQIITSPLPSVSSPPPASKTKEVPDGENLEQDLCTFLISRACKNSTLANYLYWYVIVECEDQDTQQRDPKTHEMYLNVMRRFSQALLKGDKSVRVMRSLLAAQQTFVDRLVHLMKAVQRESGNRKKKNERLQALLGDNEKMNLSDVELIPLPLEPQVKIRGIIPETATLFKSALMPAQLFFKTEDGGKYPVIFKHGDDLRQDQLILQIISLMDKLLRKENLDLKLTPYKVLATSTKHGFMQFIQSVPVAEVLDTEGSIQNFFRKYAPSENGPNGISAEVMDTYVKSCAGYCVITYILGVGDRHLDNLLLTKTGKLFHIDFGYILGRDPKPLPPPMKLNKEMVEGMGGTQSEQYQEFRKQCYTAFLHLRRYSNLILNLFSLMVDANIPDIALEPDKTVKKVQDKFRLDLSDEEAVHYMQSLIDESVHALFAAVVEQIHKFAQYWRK

[7] = Mouse PK Assays; conditions: in vivo; for clearance: read-out: PK-Mouse: IV Cl; for bioavailability: read-out: PK-Mouse: PO F (%)
[8] = biological target: DNA-PK (Homo sapiens (Human), UniProt P78527); test: Selectivity against selected lipid kinases: DNA-PK; type: biochemical
[9] = biological target: PI3K-B (Homo sapiens (Human), UniProt P42338); test: Selectivity against selected lipid kinases: PI3K-B; type: biochemical
Chain of PI3K-B (P42338 whole entry): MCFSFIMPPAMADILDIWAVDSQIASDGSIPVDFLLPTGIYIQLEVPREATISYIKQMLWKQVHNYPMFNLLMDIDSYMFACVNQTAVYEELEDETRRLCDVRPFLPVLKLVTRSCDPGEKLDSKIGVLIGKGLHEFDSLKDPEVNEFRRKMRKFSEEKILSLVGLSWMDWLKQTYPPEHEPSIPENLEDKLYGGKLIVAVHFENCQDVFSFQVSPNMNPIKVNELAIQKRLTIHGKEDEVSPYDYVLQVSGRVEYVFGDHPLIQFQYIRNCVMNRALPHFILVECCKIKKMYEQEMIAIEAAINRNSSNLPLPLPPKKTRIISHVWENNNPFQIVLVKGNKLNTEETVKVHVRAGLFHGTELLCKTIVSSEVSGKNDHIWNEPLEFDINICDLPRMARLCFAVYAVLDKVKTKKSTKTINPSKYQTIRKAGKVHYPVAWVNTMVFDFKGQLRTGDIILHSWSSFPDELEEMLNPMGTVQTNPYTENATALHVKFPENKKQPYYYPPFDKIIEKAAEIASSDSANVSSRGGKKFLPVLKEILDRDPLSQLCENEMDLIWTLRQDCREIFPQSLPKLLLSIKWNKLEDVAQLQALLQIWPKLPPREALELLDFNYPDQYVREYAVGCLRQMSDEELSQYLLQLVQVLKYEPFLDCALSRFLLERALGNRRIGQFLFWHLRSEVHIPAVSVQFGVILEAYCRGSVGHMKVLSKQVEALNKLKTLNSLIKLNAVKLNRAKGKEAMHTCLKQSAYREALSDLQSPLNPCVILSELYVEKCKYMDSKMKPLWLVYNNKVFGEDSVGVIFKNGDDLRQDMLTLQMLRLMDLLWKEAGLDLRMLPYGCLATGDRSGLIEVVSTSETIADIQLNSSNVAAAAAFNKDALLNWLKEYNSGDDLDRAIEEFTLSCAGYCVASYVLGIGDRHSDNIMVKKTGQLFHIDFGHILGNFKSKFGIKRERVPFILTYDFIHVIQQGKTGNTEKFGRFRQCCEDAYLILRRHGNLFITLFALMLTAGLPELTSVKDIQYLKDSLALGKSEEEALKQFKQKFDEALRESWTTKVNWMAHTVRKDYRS
Chain of PI3K-B (P27986 whole entry partner): as the sequence (P27986 whole entry partner) above

[10] = biological target: PI3K-D (Homo sapiens (Human), UniProt O00329); test: Selectivity against selected lipid kinases: PI3K-D; type: biochemical
Chain of PI3K-D (O00329 whole entry): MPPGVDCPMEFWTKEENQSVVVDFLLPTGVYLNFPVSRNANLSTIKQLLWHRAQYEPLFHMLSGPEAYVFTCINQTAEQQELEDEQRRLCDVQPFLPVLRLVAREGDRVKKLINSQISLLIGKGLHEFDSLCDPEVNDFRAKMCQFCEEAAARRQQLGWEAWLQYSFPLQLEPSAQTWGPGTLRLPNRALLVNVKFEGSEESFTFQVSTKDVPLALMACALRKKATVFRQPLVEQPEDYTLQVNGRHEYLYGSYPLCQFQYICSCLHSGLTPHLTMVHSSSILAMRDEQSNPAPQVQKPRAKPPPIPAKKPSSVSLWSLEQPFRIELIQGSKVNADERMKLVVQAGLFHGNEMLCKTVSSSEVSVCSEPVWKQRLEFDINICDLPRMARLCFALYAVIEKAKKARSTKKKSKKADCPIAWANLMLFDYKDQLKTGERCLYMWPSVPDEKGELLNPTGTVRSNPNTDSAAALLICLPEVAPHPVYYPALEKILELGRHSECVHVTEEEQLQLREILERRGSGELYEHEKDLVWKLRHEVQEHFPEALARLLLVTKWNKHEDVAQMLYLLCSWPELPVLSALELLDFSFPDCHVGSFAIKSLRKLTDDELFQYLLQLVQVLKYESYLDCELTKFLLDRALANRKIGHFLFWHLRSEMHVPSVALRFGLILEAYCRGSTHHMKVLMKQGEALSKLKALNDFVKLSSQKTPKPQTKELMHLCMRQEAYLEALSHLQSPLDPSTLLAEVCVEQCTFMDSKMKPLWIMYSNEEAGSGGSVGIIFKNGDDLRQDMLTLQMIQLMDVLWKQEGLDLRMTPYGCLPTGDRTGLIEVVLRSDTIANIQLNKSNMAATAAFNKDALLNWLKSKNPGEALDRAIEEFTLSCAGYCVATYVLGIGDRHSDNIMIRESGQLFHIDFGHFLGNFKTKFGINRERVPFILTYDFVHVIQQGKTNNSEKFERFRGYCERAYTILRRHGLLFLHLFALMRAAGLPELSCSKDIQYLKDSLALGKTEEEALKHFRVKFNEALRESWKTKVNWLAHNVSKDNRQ
Chain of PI3K-D (P27986 whole entry partner): as the sequence (P27986 whole entry partner) above

[11] = IV 1 mg/kg, read-out: PK-Mouse: IV-AUC-0-last
[12] = PO 10 mg/kg, 20% DMSO/60% PEG400/20% Water, fed
[13] = PO 50 mg/kg, 20% DMSO/60% PEG400/20% Water, fed
[14] = PO 50 mg/kg, 20% DMSO/60% PEG400/20% Water, fed, read-out: PK-Mouse: PO AUC-0-last
[15] = PO 10 mg/kg, 30% SBE-beta-cyclodextrin, fed

## Cc1cc(C(C)Nc2ccccc2C(=O)O)c2oc(N3CCC(F)(F)CC3)cc(=O)c2c1 (single isomer, unassigned) [Example 130, 2-[1-[2-(4,4-Difluoro-1-piperidyl)-6-methyl-4-oxo-chromen-8-yl]ethylamino]benzoic acid]
[1]
  IC50: < 0.5 µM
[2]
  EC50: 1 to 5 µM
[3]
  IC50: 1 to 5 µM

## Cc1cc(C(C)Nc2ccccc2C(=O)O)c2oc(N3Cc4ccccc4C3)cc(=O)c2c1 (single isomer, unassigned) [Example 363, 2-[1-(2-Isoindolin-2-yl-6-methyl-4-oxo-chromen-8-yl)ethylamino]benzoic acid]
[4]
  IC50: 7.8 µM
[5]
  IC50: > 10 µM
[6]
  IC50: 0.45 µM
[7]; IV 1 mg/kg
  clearance: 8.2 mL/min/kg
[7]; [11]
  AUC(0-t): 2130 ng·h/mL
[7]; [12]
  Cmax: 1300 ng/mL
  bioavailability: 87%
[7]; PO 10 mg/kg, 20% DMSO/60% PEG400/20% Water, fed, read-out: PK-Mouse: PO AUC-0-last
  AUC(0-t): 18000 ng·h/mL
[7]; [13]
  Cmax: 5100 ng/mL
  bioavailability: 33%
[7]; [14]
  AUC(0-t): 31000 ng·h/mL
[8]
  IC50: 0.98 µM
[2]
  EC50: 1 to 5 µM
[9]
  IC50: 0.11 µM
[10]
  IC50: > 10 µM

## Cc1cc(C(C)Nc2ccccc2C(=O)O)c2oc(N3CCC(C)(C)CC3)cc(=O)c2c1 (single isomer, unassigned) [Example 366, 2-[1-[2-(4,4-Dimethyl-1-piperidyl)-6-methyl-4-oxo-chromen-8-yl]ethylamino]benzoic acid]
[4]
  IC50: > 10 µM
[5]
  IC50: > 10 µM
[6]
  IC50: > 10 µM
[7]; IV 1 mg/kg
  clearance: 43 mL/min/kg
[7]; [11]
  AUC(0-t): 343 ng·h/mL
[7]; [15]
  Cmax: 350 ng/mL
  bioavailability: 100%
[7]; PO 10 mg/kg, 30% SBE-beta-cyclodextrin, fed, read-out: PK-Mouse: PO AUC-0-last
  AUC(0-t): 3.9 ng·h/mL
[7]; [13]
  Cmax: 8.56 ng/mL
[7]; [14]
  AUC(0-t): 48 ng·h/mL
[7]; PO 100 mg/kg, 20% DMSO/60% PEG400/20% H2O, fed
  Cmax: 22.6 ng/mL
[7]; PO 100 mg/kg, 20% DMSO/60% PEG400/20% H2O, fed, read-out: PK-Mouse: PO AUC-0-last
  AUC(0-t): 76 ng·h/mL
[8]
  IC50: > 10 µM
[2]
  EC50: 1 to 5 µM
[9]
  IC50: > 10 µM
[10]
  IC50: > 10 µM

## COc1cc(C(=O)O)c(NC(C)c2cc(C)cc3c(=O)cc(N4CCC(C)(C)CC4)oc23)cc1F (stereo not shown) [Example 1, 2-[1-[2-(4,4-dimethyl-1-piperidyl)-6-methyl-4-oxo-chromen-8-yl]ethylamino]-4-fluoro-5-methoxy-benzoic acid]
[1]
  IC50: 1 to 5 µM
[2]
  EC50: 15 to 24 µM

## Cc1cc(C(C)Nc2ccccc2C(=O)O)c2oc(N3CCC4(CCCCO4)CC3)cc(=O)c2c1 (stereo not shown) [Example 93, 2-[1-[6-Methyl-2-(1-oxa-9-azaspiro[5.5]undecan-9-yl)-4-oxo-chromen-8-yl]ethylamino]benzoic acid]
[1]
  IC50: 0.5 to 1 µM
[2]
  EC50: 5 to 15 µM
[3]
  IC50: 5 to 10 µM

## Cc1cc(C(C)Nc2ccccc2C(=O)O)c2oc(N3CCC4(CCCC4)CC3)cc(=O)c2c1 (stereo not shown) [Example 96, 2-[1-[2-(8-Azaspiro[4.5]decan-8-yl)-6-methyl-4-oxo-chromen-8-yl]ethylamino]benzoic acid]
[1]
  IC50: 0.5 to 1 µM
[2]
  EC50: 1 to 5 µM
[3]
  IC50: 1 to 5 µM

## CCNc1cc(=O)c2cc(C)cc(C(C)Nc3ccccc3C(=O)O)c2o1 (stereo not shown) [Example 126, 2-[1-[2-(Ethylamino)-6-methyl-4-oxo-chromen-8-yl]ethylamino]benzoic acid]
[1]
  IC50: 0.5 to 1 µM
[2]
  EC50: > 24 µM

## Cc1cc(C(C)Nc2ccccc2C(=O)O)c2oc(N3CCC4(CC3)CN(C)C(=O)O4)cc(=O)c2c1 (stereo not shown) [Example 380, 2-[1-[6-Methyl-2-(3-methyl-2-oxo-1-oxa-3,8-diazaspiro[4.5]decan-8-yl)-4-oxo-chromen-8-yl]ethylamino]benzoic acid]
[1]
  IC50: 1 to 5 µM
[2]
  EC50: > 24 µM
